Where two headings read alike, the source gives them in different places.
Experiments:
[1] = test system: mouse (MC3T3-E1) and human (TE-85) osteoblast-line cells; type: cell-based
In short: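 Proliferation was read as ^3H-thymidine (0.4 μCi) uptake during a 4 h pulse, which started 20 h after compound addition. Before dosing, cells sat 24 h in 0.1% FBS. Values are % times control (100%).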

[2] = biological target: T1, progestin receptor from rabbit uterus (Oryctolagus cuniculus, UniProt P06186); experiment: Progestin receptor binding (3H-R5020 displacement); conditions: rabbit uterine cytosol, 4° C., 18 h, read-out: IC50: Binding affinity for the progestin receptor from rabbit uterus
T1 construct: Cytosolic progestin receptor were obtained by mixing rabbit uterine tissue with a Tris buffer; from tissue; host or cells: rabbit uterus cytosol
T1 sequence (P06186 whole entry): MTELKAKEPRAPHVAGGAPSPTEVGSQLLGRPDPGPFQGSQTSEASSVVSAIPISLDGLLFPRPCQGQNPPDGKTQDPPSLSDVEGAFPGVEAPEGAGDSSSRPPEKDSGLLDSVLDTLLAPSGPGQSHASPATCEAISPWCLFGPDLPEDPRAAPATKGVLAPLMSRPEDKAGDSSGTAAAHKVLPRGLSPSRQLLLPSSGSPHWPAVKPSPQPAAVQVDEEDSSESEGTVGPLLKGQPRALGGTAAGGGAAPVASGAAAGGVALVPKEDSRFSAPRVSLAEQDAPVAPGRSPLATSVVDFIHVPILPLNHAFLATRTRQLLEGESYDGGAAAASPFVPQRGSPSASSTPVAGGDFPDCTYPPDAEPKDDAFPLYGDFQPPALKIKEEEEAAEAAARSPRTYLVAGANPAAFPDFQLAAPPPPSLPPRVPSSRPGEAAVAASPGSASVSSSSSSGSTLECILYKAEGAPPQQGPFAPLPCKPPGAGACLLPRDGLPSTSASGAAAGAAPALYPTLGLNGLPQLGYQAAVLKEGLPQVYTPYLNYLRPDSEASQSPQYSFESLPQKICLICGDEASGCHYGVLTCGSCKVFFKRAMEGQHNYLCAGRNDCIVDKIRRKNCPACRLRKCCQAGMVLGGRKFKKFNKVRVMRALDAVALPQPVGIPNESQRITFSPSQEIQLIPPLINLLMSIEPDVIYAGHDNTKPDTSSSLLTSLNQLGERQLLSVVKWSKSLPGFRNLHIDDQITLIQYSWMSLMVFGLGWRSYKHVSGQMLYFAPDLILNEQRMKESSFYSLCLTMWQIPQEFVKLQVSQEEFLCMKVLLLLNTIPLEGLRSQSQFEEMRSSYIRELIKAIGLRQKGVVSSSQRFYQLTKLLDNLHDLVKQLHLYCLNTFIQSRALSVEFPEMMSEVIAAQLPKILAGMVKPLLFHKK
In short: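 Displacement of the radioligand 3H-R5020 was measured in cytosol from homogenized rabbit uterus (pH 7.4 Tris/EDTA/DTT/molybdate buffer), with compounds at 5% final DMSO and about 18 h at 4 °C. Charcoal removed free ligand, scintillation counting quantified bound ligand, and IC50 was the concentration displacing half.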

Compound | Osteoblast Cell Proliferation, 3H-thymidine incorporation vs control (100%) ([1]; 10^-6) [%] | Osteoblast Cell Proliferation, 3H-thymidine incorporation vs control (100%) ([1]; 10^-7) [%] | Osteoblast Cell Proliferation, 3H-thymidine incorporation vs control (100%) ([1]; 10^-8) [%] | Osteoblast Cell Proliferation, 3H-thymidine incorporation vs control (100%) ([1]; 10^-9) [%] | Osteoblast Cell Proliferation, 3H-thymidine incorporation vs control (100%) ([1]; 10^-10) [%] | IC50 [2] [µM]
Cc1ccc(S(=O)(=O)N2N=C(c3ccccc3)CC3CCCC32)cc1 (stereo not drawn) [Compound 156, 4,4a,5,6,7,7a-Hexahydro-3-phenyl-1-(4-methylbenzenesulfonyl)-1H-cyclopenta[c]pyridazine] | 127 | 124 | 126 | 136 | 183 | 1
Cc1ccc(S(=O)(=O)N2N=C(c3ccccc3)CC3C4C5C=CC(C5)C4CC32)cc1 (stereo not drawn) [Compound 157, 1,4,4a,9a-Tetrahydro-1-(4-methylbenzenesulfonyl)-3-phenyl-bicyclo[2.2.1]hept-7-enyl[5.6-a]cyclopenta-[1.2-e]pyridazine] | 107 | 108 | 113 | 111 | 128 | 0.75
Cc1ccc(S(=O)(=O)N2N=C(c3ccccc3)CC3Cc4ccccc4C32)cc1 (stereo not drawn) [Compound 158, 1,4,4a,9a,-Tetrahydro-4-(4-methylbenzenesulfonyl)-2-phenyl-3,4-diazafluorene Hemihydrate] | 105 | 102 | 122 | 114 | 119 | 3
COC12CCCCC1CC(c1ccccc1)=NN2S(=O)(=O)c1ccc(C)cc1 (stereo not drawn) [Compound 159, 1,4,4a,5,6,7,8,8a-Octahydro-8a-methoxy-1-(4-methyl-benzenesulfonyl)-3-phenyl-1,2-diazanapthalene] | 97 | 100 | 91 | 97 | 105 | 1.38
Cc1ccc(S(=O)(=O)N2N=C(c3cccc(Br)c3)CC3C4C5C=CC(C5)C4CC32)cc1 (stereo not drawn) [Compound 161, 1,4,4a,9a-Tetrahydro-1-(4-methylbenzenesulfonyl)-3-(3bromophenyl)bicyclo[2.2.1]hept-7-enyl[5.6-a]cyclopenta[1.2-e]pyridazine] | 76 | 95 | 113 | 122 | 112 | 3
O=S(=O)(/C=C/c1ccccc1)N1CCCC(c2ccc(Cl)c(Cl)c2)=N1 [Compound 167] | 126 | 109 | 136 | 144 | 165 | 0.00593
O=S(=O)(/C=C/c1cccc(Cl)c1)N1CCCC(c2ccc(Cl)c(Cl)c2)=N1 [Compound 172] | 134 | 108 | 103 | 106 | 113 | 0.032
COc1ccc(C(=O)N2CCCC(c3ccc(OC)cc3)=N2)cc1 [Compound 182] | 95 | 108 | 118 | 139 | 115 | 100
COc1ccc(C(=O)N2CCCC(c3ccccc3)=N2)cc1 [Compound 183] | 88 | 133 | 131 | 136 | 135 | 100
COc1ccc(C2=NN(C(=O)c3ccc(Cl)cc3)CCC2)cc1 [Compound 184] | 84 | 102 | 113 | 146 | 131 | 100
COc1ccc(C2=NN(C(=O)c3cccc(Cl)c3)CCC2)cc1 [Compound 188] | 105 | 129 | 130 | 135 | 137 | 100
COc1ccc(C2=NN(C(=O)c3ccc(Cl)c(Cl)c3)CCC2)cc1 [Compound 189] | 89 | 112 | 98 | 122 | 128 | 100
COc1ccc(C2=NN(C(=O)c3ccc(Br)cc3)CCC2)cc1 [Compound 190] | 121 | 135 | 130 | 139 | 158 | 100
O=C(c1ccccc1)N1CCCC(c2ccc(Cl)cc2)=N1 [Compound 191, 1-Benzoyl-3-(4-chlorophenyl)-1,4,5,6-tetrahydropyridazine] | 86 | 133 | 126 | 133 | 123 | 100
Cc1ccc(C(=O)N2CCCC(c3ccc(Cl)cc3)=N2)cc1 [Compound 192] | 115 | 131 | 128 | 132 | 148 | 100
O=C(c1ccc(Cl)cc1)N1CCCC(c2ccc(Cl)cc2)=N1 [Compound 193] | 107 | 161 | 162 | 190 | 208 | 10
COc1ccc(C(=O)N2CCCC(c3ccc(Cl)cc3)=N2)cc1 [Compound 194] | 93 | 130 | 136 | 138 | 144 | 100
CC(C)(C)c1ccc(C(=O)N2CCCC(c3ccc(Cl)cc3)=N2)cc1 [Compound 195] | 103 | 114 | 125 | 127 | 136 | 100
O=C(c1ccccc1)N1CCCC(c2ccccc2)=N1 [Compound 196] | 102 | 97 | 102 | 92 | 104 | 100
CC(C)(C)c1ccc(C(=O)N2CCCC(c3ccccc3)=N2)cc1 [Compound 197] | 87 | 89 | 91 | 81 | 52 | 100
O=C(c1ccc(Br)cc1)N1CCCC(c2ccc(Cl)cc2)=N1 [Compound 198] | 94 | 97 | 112 | 99 | 85 | 10

Source: US5684151A, “1-arylsulphonyl, arylcarbonyl and 1-arylphosphonyl-3-phenyl-1,4,5,6-tetrahydropyridazines” (priority 1995, dated 1997)
